Common to all, as to type: functional
Experiment [1] has as its system Micrococcus luteus. Description: Antibacterial activity against Micrococcus luteus MTCC 1538 after 24 hr by broth dilution method. The conditions noted are these: MTCC 1538, 24 h. On the technique in general: Broth dilution looks for growth in wells or tubes with falling amounts of substance.
For experiment [2], the system named is Pseudomonas aeruginosa. Description: Antibacterial activity against Pseudomonas aeruginosa MTCC 424 at 100 ug/ml after 18 hr by cup-plate method. The conditions noted are these: MTCC 424, 18 h, read-out: DIZ.
Experiment [3] has as its system Escherichia coli. Put plainly: Antibacterial activity against Escherichia coli MTCC 1573 at 100 ug/ml after 18 hr by cup-plate method. The conditions noted are these: MTCC 1573, 18 h, read-out: DIZ.
For experiment [4], the system named is Escherichia coli. Put plainly: Antibacterial activity against Escherichia coli MTCC 1573 after 24 hr by broth dilution method. The conditions noted are these: MTCC 1573, 24 h.
Experiment [5] deals with Bacillus pumilus. Description: Antibacterial activity against Bacillus pumilus MTCC 1456 after 24 hr by broth dilution method. To be noted: MTCC 1456, 24 h.
Experiment [6] concerns Pseudomonas fluorescens. Description: Antibacterial activity against Pseudomonas fluorescens MTCC 2421 after 24 hr by broth dilution method. The conditions noted are these: MTCC 2421, 24 h.
Experiment [7] has as its system Bacillus subtilis. Description: Antibacterial activity against Bacillus subtilis MTCC 441 at 100 ug/ml after 18 hr by cup plate method. To be noted: MTCC 441, 18 h, read-out: DIZ.
Experiment [8] relates to Bacillus pumilus. Put plainly: Antibacterial activity against Bacillus pumilus MTCC 1456 at 100 ug/ml after 18 hr by cup-plate method. To be noted: MTCC 1456, 18 h, read-out: DIZ.
In experiment [9] the test system is Micrococcus luteus. Put plainly: Antibacterial activity against Micrococcus luteus MTCC 1538 at 100 ug/ml after 18 hr by cup-plate method. The conditions noted are these: MTCC 1538, 18 h, read-out: DIZ.
The test system of experiment [10] is Pseudomonas aeruginosa. Put plainly: Antibacterial activity against Pseudomonas aeruginosa MTCC 424 after 24 hr by broth dilution method. To be noted: MTCC 424, 24 h.
For experiment [11], the system named is Pseudomonas fluorescens. Description: Antibacterial activity against Pseudomonas fluorescens MTCC 2421 at 100 ug/ml after 18 hr by cup-plate method. The conditions noted are these: MTCC 2421, 18 h, read-out: DIZ.
Experiment [12] deals with Bacillus subtilis. Put plainly: Antibacterial activity against Bacillus subtilis MTCC 441 after 24 hr by broth dilution method. To be noted: MTCC 441, 24 h.
In experiment [13] the test system is Staphylococcus aureus. Put plainly: Antibacterial activity against Staphylococcus aureus MTCC 1430 at 100 ug/ml after 18 hr by cup-plate method. The conditions noted are these: MTCC 1430, 18 h, read-out: DIZ.
The test system of experiment [14] is Staphylococcus aureus. Description: Antibacterial activity against Staphylococcus aureus MTCC 1430 after 24 hr by broth dilution method. To be noted: MTCC 1430, 24 h.
In experiment [15] the test system is Micrococcus luteus. Description: Antibacterial activity against Micrococcus luteus MTCC 1538 at 200 ug/ml after 18 hr by cup-plate method. To be noted: MTCC 1538, 18 h, read-out: DIZ.
Experiment [16] has as its system Penicillium chrysogenum. Put plainly: Antifungal activity against Penicillium chrysogenum MTCC 161 at 1000 ug/ml after 18 hr by cup-plate method. To be noted: MTCC 161, 18 h, read-out: DIZ.
The subject of experiment [17] is Pseudomonas fluorescens. Put plainly: Antibacterial activity against Pseudomonas fluorescens MTCC 2421 at 500 ug/ml after 18 hr by cup-plate method. The conditions noted are these: MTCC 2421, 18 h, read-out: DIZ.
The test system of experiment [18] is Staphylococcus aureus. Put plainly: Antibacterial activity against Staphylococcus aureus MTCC 1430 at 200 ug/ml after 18 hr by cup-plate method. To be noted: MTCC 1430, 18 h, read-out: DIZ.
Experiment [19] concerns Micrococcus luteus. Description: Antibacterial activity against Micrococcus luteus MTCC 1538 at 1500 ug/ml after 18 hr by cup-plate method. To be noted: MTCC 1538, 18 h, read-out: DIZ.
In experiment [20] the test system is Micrococcus luteus. Put plainly: Antibacterial activity against Micrococcus luteus MTCC 1538 at 500 ug/ml after 18 hr by cup-plate method. The conditions noted are these: MTCC 1538, 18 h, read-out: DIZ.
Experiment [21] concerns Escherichia coli. Put plainly: Antibacterial activity against Escherichia coli MTCC 1573 at 1500 ug/ml after 18 hr by cup-plate method. To be noted: MTCC 1573, 18 h, read-out: DIZ.
The subject of experiment [22] is Aspergillus niger. Description: Antifungal activity against Aspergillus niger MTCC 2546 at 1000 ug/ml after 18 hr by cup-plate method. The conditions noted are these: MTCC 2546, 18 h, read-out: DIZ.
The subject of experiment [23] is Pseudomonas fluorescens. Put plainly: Antibacterial activity against Pseudomonas fluorescens MTCC 2421 at 1500 ug/ml after 18 hr by cup-plate method. To be noted: MTCC 2421, 18 h, read-out: DIZ.
For experiment [24], the system named is Aspergillus niger. Put plainly: Antifungal activity against Aspergillus niger MTCC 2546 at 1500 ug/ml after 18 hr by cup-plate method. To be noted: MTCC 2546, 18 h, read-out: DIZ.
Experiment [25] concerns Pseudomonas fluorescens. Put plainly: Antibacterial activity against Pseudomonas fluorescens MTCC 2421 at 200 ug/ml after 18 hr by cup-plate method. To be noted: MTCC 2421, 18 h, read-out: DIZ.
Experiment [26] concerns Penicillium chrysogenum. Description: Antifungal activity against Penicillium chrysogenum MTCC 161 at 1500 ug/ml after 18 hr by cup-plate method. The conditions noted are these: MTCC 161, 18 h, read-out: DIZ.
In experiment [27] the test system is Penicillium chrysogenum. Description: Antifungal activity against Penicillium chrysogenum MTCC 161 after 24 hr by broth dilution method. The conditions noted are these: MTCC 161, 24 h.
In experiment [28] the test system is Escherichia coli. Put plainly: Antibacterial activity against Escherichia coli MTCC 1573 at 1000 ug/ml after 18 hr by cup-plate method. To be noted: MTCC 1573, 18 h, read-out: DIZ.
Experiment [29] concerns Micrococcus luteus. Put plainly: Antibacterial activity against Micrococcus luteus MTCC 1538 at 1000 ug/ml after 18 hr by cup-plate method. The conditions noted are these: MTCC 1538, 18 h, read-out: DIZ.
Experiment [30] has as its system Aspergillus niger. Description: Antifungal activity against Aspergillus niger MTCC 2546 after 24 hr by broth dilution method. The conditions noted are these: MTCC 2546, 24 h.
For experiment [31], the system named is Staphylococcus aureus. Put plainly: Antibacterial activity against Staphylococcus aureus MTCC 1430 at 1500 ug/ml after 18 hr by cup-plate method. The conditions noted are these: MTCC 1430, 18 h, read-out: DIZ.
For experiment [32], the system named is Pseudomonas aeruginosa. Put plainly: Antibacterial activity against Pseudomonas aeruginosa MTCC 424 at 1500 ug/ml after 18 hr by cup-plate method. To be noted: MTCC 424, 18 h, read-out: DIZ.
Experiment [33] concerns Staphylococcus aureus. Description: Antibacterial activity against Staphylococcus aureus MTCC 1430 at 1000 ug/ml after 18 hr by cup-plate method. The conditions noted are these: MTCC 1430, 18 h, read-out: DIZ.
For experiment [34], the system named is Escherichia coli. Description: Antibacterial activity against Escherichia coli MTCC 1573 at 500 ug/ml after 18 hr by cup-plate method. The conditions noted are these: MTCC 1573, 18 h, read-out: DIZ.
The subject of experiment [35] is Aspergillus niger. Put plainly: Antifungal activity against Aspergillus niger MTCC 2546 at 500 ug/ml after 18 hr by cup-plate method. The conditions noted are these: MTCC 2546, 18 h, read-out: DIZ.
Experiment [36] relates to Pseudomonas fluorescens. Put plainly: Antibacterial activity against Pseudomonas fluorescens MTCC 2421 at 1000 ug/ml after 18 hr by cup-plate method. To be noted: MTCC 2421, 18 h, read-out: DIZ.
Experiment [37] deals with Penicillium chrysogenum. Description: Antifungal activity against Penicillium chrysogenum MTCC 161 at 500 ug/ml after 18 hr by cup-plate method. To be noted: MTCC 161, 18 h, read-out: DIZ.
Experiment [38] relates to Staphylococcus aureus. Put plainly: Antibacterial activity against Staphylococcus aureus MTCC 1430 at 500 ug/ml after 18 hr by cup-plate method. The conditions noted are these: MTCC 1430, 18 h, read-out: DIZ.

≈ marks a conversion by molar mass, not a printed value.

The MIC is the lowest concentration that inhibits growth of the organism. Low values mean inhibition by little substance, high ones a need for much substance. Turning to `CCn1cc(C(=O)O)c(=O)c2cc(F)c(N3CCNCC3)cc21` [NORFLOXACIN], the MIC against Micrococcus luteus [1], against Escherichia coli [4], against Bacillus pumilus [5], in the experiment with Pseudomonas fluorescens [6], in the experiment with Pseudomonas aeruginosa [10] and in the experiment with Bacillus subtilis [12] was 50 µg/mL (≈ 157 µM) in each case. Further, in the experiment on Staphylococcus aureus [14], it took 50 µg/mL (≈ 157 µM) to inhibit growth (MIC). Besides, the zone of inhibition at 100 µg/mL in the experiment with Pseudomonas aeruginosa [2] stood at 28 mm; in the experiment with Escherichia coli [3] it was 36 mm; in the experiment with Bacillus subtilis [7], 23 mm; with Bacillus pumilus [8], 28 mm; with Micrococcus luteus [9], 26 mm; in the experiment on Pseudomonas fluorescens [11] it was 25 mm. The zone of inhibition at 100 µg/mL with Staphylococcus aureus [13] stood at 25 mm.
Turning to `C(=N\c1ccccn1)/c1cccc2ccccc12`, the zone of inhibition at 200 µg/mL is 12 mm in the experiment on Micrococcus luteus [15], 12 mm with Staphylococcus aureus [18] and 13 mm in the experiment with Pseudomonas fluorescens [25]. Moreover, the zone of inhibition at 1000 µg/mL worked out at 12 mm in the experiment with Penicillium chrysogenum [16]; 13 mm in the experiment with Aspergillus niger [22]; 14 mm with Escherichia coli [28]; 20 mm in the experiment on Micrococcus luteus [29]; 16 mm in the experiment with Staphylococcus aureus [33]; 17 mm in the experiment on Pseudomonas fluorescens [36]. In addition, the zone of inhibition at 500 µg/mL with Pseudomonas fluorescens [17] stood at 15 mm; with Micrococcus luteus [20] it was 17 mm; in the experiment with Escherichia coli [34], 11 mm; with Aspergillus niger [35], 12 mm; in the experiment with Penicillium chrysogenum [37], 10 mm; in the experiment on Staphylococcus aureus [38] it was 14 mm. Also, the MIC with Micrococcus luteus [1] was 400 µg/mL (≈ 1720 µM); in the experiment on Escherichia coli [4], 400 µg/mL (≈ 1720 µM); against Bacillus pumilus [5] it was 500 µg/mL (≈ 2150 µM); against Penicillium chrysogenum [27], 500 µg/mL (≈ 2150 µM); with Pseudomonas fluorescens [6] it was 300 µg/mL (≈ 1290 µM); in the experiment with Pseudomonas aeruginosa [10] it was 500 µg/mL (≈ 2150 µM). The MIC in the experiment on Aspergillus niger [30] was found to be 500 µg/mL (≈ 2150 µM); against Bacillus subtilis [12] it was 500 µg/mL (≈ 2150 µM); against Staphylococcus aureus [14], 400 µg/mL (≈ 1720 µM). The zone of inhibition at 1500 µg/mL with Micrococcus luteus [19] was determined as 24 mm; with Escherichia coli [21], 16 mm; with Pseudomonas fluorescens [23], 19 mm; with Aspergillus niger [24], 15 mm; in the experiment with Penicillium chrysogenum [26] it was 17 mm; in the experiment on Staphylococcus aureus [31], 20 mm. In the experiment on Pseudomonas aeruginosa [32], the zone of inhibition at 1500 µg/mL was 15 mm. In addition, the zone of inhibition at 100 µg/mL in the experiment on Micrococcus luteus [9], in the experiment with Pseudomonas fluorescens [11] and in the experiment on Staphylococcus aureus [13] was 11 mm in each case.
